{
  "source": "paper PMC8287028",
  "about": "(Frontiers in Veterinary Science, 2021)",
  "key": {"major plasma proteins": {"tested_on": "major plasma proteins", "experiment": "Protein binding by ex vivo ultrafiltration of spiked plasma, LC/MS", "assay_type": "in vitro ADME, dog", "protocol": "For each dog a sample of anticoagulated platelet-poor plasma collected at baseline was centrifuged (16,000 g, 5 min, 4°C) and the supernatant filtered with a […] syringe filter. […] One aliquot was centrifuged (16,000 g, 30 min, 4°C) in a molecular exclusion device (Amicon Ultra 30k filter, Millipore-Sigma) to remove the major plasma proteins. The spiked plasma and the ultrafiltrate were then analyzed for apixaban by LC/MS as above. Protein binding (%) was determined as: [Total concentration] – [[…] Unbound concentration]/Total concentration ×100."}, "prothrombin time": {"tested_on": "prothrombin time", "experiment": "Prothrombin time (PT) on citrated plasma of dosed dogs", "assay_type": "in vivo, dog", "protocol": "Coagulation assays were performed on platelet-poor, citrated plasma samples by a reference laboratory (Comparative Coagulation Laboratory, Animal Health Diagnostic Center, Ithaca, NY). […] The assay is configured with a bovine activated Factor X reagent that is added in excess to the test plasma and a chromogenic substrate of Factor Xa (STA Liquid anti-Xa, Diagnostica Stago). Residual, uninhibited Factor Xa cleaves the chromogenic substrate such that the inverse of the color change in the reaction mixture is proportional to the drug concentration in the test plasma. […] Assay controls, consisting of human plasma spiked with apixaban (STA Apixaban Controls, Diagnostica Stago) were analyzed before each batch of test samples to confirm assay performance. The apixaban levels in calibrators and controls are defined by the manufacturer from an internal reference assayed by HPLC-MS. […] A mechanical endpoint method (STA Compact, Diagnostica Stago) and human coagulation reagents were used to measure prothrombin time (Thromboplastin LI, Helena Diagnostics, Beaumont, TX) and activated partial thromboplastin time (Dade Actin FS, Dade Behring, Newark, DE). […] Tissue-factor (1:50,000 final dilution) activated TEG was performed using standard equipment (TEG-5000, Haemonetics, Braintree, MA) as previously reported ([35]), with assays conducted per established guidelines ([36]), with a modification to eliminate the rest time to facilitate rapid sample processing. Thromboelastography assays were conducted by experienced operators using four TEG channels and tracings terminated after maximum amplitude was established. Four values were extracted from TEG tracings: reaction time (R-time), clot formation time (K-time), clot formation angle (alpha), and maximum amplitude (MA).\nPairwise comparisons between continuous variables were conducted with Wilcoxon matched-pairs signed rank test, while comparisons of more than two groups were conducted using the Friedman test with Dunn's post-hoc adjustment. […]"}, "healthy mixed-breed dogs": {"tested_on": "healthy mixed-breed dogs", "experiment": "Monitoring for adverse reactions after IV and PO apixaban", "details": "study period", "text": "Additionally, drug metabolism might be different in beagles compared with mixed-breed dogs ([33], [34]). […] The study was approved by the Institutional Animal Care and Use Committee (IACUC) at Cornell University College of Veterinary Medicine (Protocol #2019-0099). All dogs were housed at Cornell University and cared for by licensed veterinarians and technicians according to established protocols. All dogs were permanently adopted into private homes after study completion.\nOn the days of drug administration, 5 Fr × 25 cm trilumen wire-guided catheters (Mila International, Erlanger, KY) were aseptically placed in external jugular veins by modified-Seldinger technique to facilitate atraumatic, repeat blood sample collection. Dogs were sedated with IV butorphanol 0.2 mg/kg and dexmedetomidine 5 μg/kg (Zoetis, Parsippany, NJ) to facilitate catheter placement. Jugular catheters were secured using 3-0 nylon sutures, protected with sterile bandages, and flushed with 0.9% saline (no heparin was used). […] Dogs were closely monitored for adverse reactions throughout the sample collection period. […] After each sample collection, one citrate anticoagulated whole blood sample was analyzed using thromboelastography (TEG), while the second citrate sample was centrifuged (1,370 g, 10 min, 20°C), the plasma separated, split into two aliquots and then frozen at −80°C pending batch analyses."}, "dog factor Xa": {"target": "dog factor Xa", "details": "in vitro, isolated factor Xa, cited from earlier work"}},
  "data": [
    {"compound": "COc1ccc(-n2nc(C(N)=O)c3c2C(=O)N(c2ccc(N4CCCCC4=O)cc2)CC3)cc1", "note": "[apixaban]", "values": [
      {"measurement": "fraction unbound at 500 ng/ml", "setting": "major plasma proteins; both sexes, mixed-breed, platelet-poor plasma, dog plasma spiked at 500 ng/ml, ultrafiltration, mean of 6 dogs, using 7 ng/ml for the deproteinated samples", "value": 0.014},
      {"measurement": "apixaban concentration in deproteinated samples", "setting": "major plasma proteins; ultrafiltrate of dog plasma spiked at 500 ng/ml, all samples", "value": "< 7", "unit": "ng/mL"},
      {"measurement": "PT versus baseline", "setting": "prothrombin time; IV 0.18 mg/kg, at 5, 15, 30 and 60 min", "value": "significantly prolonged"},
      {"measurement": "concentration required to double the PT from baseline", "setting": "prothrombin time; IV, estimate from the regression equation line of Figure 2B", "value": "2,485 ng/ml"},
      {"measurement": "PT versus baseline", "setting": "prothrombin time; PO 0.2 mg/kg, at 4, 6 and 8 h", "value": "significantly prolonged"},
      {"measurement": "adverse reactions, including signs of abnormal bleeding or bruising", "setting": "healthy mixed-breed dogs", "value": "no adverse reactions"},
      {"measurement": "inhibitor constant (Ki)", "setting": "dog factor Xa", "value": 0.78, "unit": "ng/mL"},
      {"measurement": "Ki", "setting": "dog factor Xa; read-out: inhibitor constant (Ki)", "value": 1.7, "unit": "nM"}
    ]}
  ]
}
